Common to all, as to experiment: KINOMEscan competition binding
Details in all cases: compound 10.0 µM

Experiment [1] relates to ABL1 (human), P00519 [E255K].
Experiment [2] relates to ABL1 (human), P00519 [M351T].
Experiment [3] deals with ABL1 (human), P00519 [Q252H].
For experiment [4], the system named is ABL1 (human), P00519 [T315I].
Experiment [5] relates to EGFR (human), P00533 [746-750 del].
Experiment [6] relates to EGFR (human), P00533 [G719S].
Experiment [7] deals with EGFR (human), P00533 [L861Q].
Experiment [8] relates to EGFR (human), P00533 [P753S; 747-752 del].
The subject of experiment [9] is EIF2AK4 KD2 (human), Q9P2K8 [S808G].
For experiment [10], the system named is FLT3 (human), P36888 [ITD].
Experiment [11] concerns FLT3 (human), P36888 [K663Q].
Experiment [12] has as its system FLT3 (human), P36888 [N841I].
In experiment [13] the test system is KIT (human), P10721 [D816V].
Sequence of KIT (human), P10721 [D816V] (P10721 whole entry D816V, looked up): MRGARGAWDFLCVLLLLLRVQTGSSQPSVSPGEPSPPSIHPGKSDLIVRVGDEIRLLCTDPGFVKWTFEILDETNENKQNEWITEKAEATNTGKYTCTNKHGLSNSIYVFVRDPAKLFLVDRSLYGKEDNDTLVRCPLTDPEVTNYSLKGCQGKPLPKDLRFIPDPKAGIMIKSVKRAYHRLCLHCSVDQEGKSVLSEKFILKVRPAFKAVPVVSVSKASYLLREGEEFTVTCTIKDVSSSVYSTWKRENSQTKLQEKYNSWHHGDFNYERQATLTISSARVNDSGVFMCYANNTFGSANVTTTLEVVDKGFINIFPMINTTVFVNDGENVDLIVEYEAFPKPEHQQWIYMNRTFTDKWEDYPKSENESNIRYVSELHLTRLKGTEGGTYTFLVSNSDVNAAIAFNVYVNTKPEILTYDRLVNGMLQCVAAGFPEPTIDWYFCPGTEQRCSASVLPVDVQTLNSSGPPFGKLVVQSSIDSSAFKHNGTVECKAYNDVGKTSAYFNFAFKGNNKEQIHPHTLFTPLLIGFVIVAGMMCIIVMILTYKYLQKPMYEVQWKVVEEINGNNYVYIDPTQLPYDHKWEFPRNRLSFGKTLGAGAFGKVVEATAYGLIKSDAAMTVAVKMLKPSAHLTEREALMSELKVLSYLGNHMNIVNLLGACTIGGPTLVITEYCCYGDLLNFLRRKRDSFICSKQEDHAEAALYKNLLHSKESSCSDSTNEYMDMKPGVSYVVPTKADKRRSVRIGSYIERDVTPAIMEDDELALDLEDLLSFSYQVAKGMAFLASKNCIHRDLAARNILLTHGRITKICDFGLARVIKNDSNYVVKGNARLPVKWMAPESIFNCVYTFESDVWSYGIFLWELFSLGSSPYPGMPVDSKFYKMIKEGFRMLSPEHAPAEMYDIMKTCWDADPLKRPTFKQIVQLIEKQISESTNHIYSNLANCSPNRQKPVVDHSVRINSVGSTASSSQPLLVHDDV
The subject of experiment [14] is KIT (human), P10721 [V559D/T670I].
Experiment [15] relates to KIT (human), P10721 [V559D].
Sequence of KIT (human), P10721 [V559D] (P10721 whole entry V559D, looked up): as the sequence (P10721 whole entry D816V, looked up) above, with V559D, V816D counted along it
In experiment [16] the test system is PIK3CA (human), P42336 [E545K].
Sequence of PIK3CA (human), P42336 [E545K] (P42336 whole entry E545K, looked up): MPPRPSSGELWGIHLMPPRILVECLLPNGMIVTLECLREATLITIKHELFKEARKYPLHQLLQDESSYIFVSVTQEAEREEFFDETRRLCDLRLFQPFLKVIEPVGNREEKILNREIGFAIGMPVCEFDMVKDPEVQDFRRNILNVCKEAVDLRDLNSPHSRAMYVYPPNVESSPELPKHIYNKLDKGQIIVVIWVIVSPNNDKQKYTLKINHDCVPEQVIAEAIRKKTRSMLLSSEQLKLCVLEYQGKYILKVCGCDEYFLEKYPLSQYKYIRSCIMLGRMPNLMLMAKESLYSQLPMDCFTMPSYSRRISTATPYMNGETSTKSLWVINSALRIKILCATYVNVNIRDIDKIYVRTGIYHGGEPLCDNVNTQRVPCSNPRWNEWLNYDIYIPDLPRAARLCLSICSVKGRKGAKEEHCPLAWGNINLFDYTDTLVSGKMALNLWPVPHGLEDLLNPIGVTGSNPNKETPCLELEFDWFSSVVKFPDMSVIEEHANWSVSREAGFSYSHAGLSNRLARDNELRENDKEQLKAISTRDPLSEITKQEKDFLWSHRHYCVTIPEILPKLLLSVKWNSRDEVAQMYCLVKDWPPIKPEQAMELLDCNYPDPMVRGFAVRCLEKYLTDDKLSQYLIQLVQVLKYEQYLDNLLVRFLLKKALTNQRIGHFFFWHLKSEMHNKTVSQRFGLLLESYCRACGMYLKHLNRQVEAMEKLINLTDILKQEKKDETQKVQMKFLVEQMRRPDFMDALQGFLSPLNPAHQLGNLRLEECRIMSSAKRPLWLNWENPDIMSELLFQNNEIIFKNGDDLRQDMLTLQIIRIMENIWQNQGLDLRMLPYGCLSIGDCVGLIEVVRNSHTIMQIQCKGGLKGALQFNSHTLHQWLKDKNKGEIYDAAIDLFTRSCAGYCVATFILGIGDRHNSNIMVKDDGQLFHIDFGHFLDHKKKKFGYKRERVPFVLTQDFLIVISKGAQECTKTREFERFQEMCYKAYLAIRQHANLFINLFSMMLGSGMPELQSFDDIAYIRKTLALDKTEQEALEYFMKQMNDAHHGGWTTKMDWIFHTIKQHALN
Experiment [17] deals with PIK3CA (human), P42336 [C420R].
Sequence of PIK3CA (human), P42336 [C420R] (P42336 whole entry C420R, looked up): as the sequence (P42336 whole entry E545K, looked up) above, with C420R, K545E counted along it
Experiment [18] concerns PIK3CA (human), P42336 [E545A].
Sequence of PIK3CA (human), P42336 [E545A] (P42336 whole entry E545A, looked up): as the sequence (P42336 whole entry E545K, looked up) above, with K545A counted along it
The subject of experiment [19] is PIK3CA (human), P42336 [H1047Y].
Experiment [20] relates to PIK3CA (human), P42336 [I800L].
Sequence of PIK3CA (human), P42336 [I800L] (P42336 whole entry I800L, looked up): as the sequence (P42336 whole entry E545K, looked up) above, with K545E, I800L counted along it
The subject of experiment [21] is PIK3CA (human), P42336 [Q546K].

Sequence of EIF2AK4 KD2 (human), Q9P2K8 [S808G] (Q9P2K8 whole entry S808G, looked up): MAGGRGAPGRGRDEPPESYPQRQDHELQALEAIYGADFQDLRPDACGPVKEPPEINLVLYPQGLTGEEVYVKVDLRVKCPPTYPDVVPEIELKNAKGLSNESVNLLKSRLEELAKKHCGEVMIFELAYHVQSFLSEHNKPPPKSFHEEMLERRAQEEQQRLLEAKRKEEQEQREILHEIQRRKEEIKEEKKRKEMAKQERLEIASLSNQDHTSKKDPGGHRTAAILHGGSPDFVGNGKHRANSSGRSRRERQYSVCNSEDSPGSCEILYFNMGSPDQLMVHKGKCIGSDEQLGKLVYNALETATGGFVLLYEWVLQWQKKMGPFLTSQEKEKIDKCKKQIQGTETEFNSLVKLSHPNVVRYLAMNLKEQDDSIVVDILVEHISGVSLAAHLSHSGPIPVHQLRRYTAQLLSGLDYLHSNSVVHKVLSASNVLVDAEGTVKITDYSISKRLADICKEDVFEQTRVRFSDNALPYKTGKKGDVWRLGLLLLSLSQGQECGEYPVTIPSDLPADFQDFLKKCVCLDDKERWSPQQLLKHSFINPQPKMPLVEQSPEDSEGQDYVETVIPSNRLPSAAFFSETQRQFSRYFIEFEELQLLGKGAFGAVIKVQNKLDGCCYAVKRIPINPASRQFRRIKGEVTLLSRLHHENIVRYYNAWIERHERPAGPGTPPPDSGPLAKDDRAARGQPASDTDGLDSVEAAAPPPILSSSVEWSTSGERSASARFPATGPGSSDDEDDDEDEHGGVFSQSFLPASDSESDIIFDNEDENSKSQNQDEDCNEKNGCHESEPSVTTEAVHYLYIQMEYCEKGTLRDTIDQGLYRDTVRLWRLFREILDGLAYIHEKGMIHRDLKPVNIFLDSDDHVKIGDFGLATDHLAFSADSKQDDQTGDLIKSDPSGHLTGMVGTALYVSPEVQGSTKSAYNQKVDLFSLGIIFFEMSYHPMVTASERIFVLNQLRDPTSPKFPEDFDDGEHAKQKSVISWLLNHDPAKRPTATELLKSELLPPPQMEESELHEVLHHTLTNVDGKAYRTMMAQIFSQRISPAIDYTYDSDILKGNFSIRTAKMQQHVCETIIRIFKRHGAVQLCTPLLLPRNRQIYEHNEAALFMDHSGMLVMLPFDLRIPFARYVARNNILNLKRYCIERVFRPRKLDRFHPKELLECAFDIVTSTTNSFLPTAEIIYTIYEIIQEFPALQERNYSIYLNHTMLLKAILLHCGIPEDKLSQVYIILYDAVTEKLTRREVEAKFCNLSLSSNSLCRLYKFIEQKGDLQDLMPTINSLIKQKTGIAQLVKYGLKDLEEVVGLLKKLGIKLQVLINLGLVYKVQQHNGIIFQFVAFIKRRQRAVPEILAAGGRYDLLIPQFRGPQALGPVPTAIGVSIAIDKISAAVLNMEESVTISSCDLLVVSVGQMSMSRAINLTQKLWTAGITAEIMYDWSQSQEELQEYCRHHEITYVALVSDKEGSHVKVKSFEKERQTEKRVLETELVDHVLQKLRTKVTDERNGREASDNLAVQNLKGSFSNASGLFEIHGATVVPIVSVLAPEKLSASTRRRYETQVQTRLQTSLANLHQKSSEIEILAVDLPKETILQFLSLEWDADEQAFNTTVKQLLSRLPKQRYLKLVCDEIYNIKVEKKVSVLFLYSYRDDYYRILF
Sequence of PIK3CA (human), P42336 [Q546K] (P42336 whole entry Q546K, looked up): as the sequence (P42336 whole entry E545K, looked up) above, with K545E, Q546K counted along it
Sequence of KIT (human), P10721 [V559D/T670I] (P10721 whole entry V559D/T670I, looked up): as the sequence (P10721 whole entry D816V, looked up) above, with V559D, T670I, V816D counted along it
Sequence of PIK3CA (human), P42336 [H1047Y] (P42336 whole entry H1047Y, looked up): as the sequence (P42336 whole entry E545K, looked up) above, with K545E, H1047Y counted along it

With `COc1cc(N2CCC(C(N)=O)CC2)ccc1Nc1nc(N)c(Cl)c(Nc2ccccc2S(=O)(=O)C(C)C)n1`, the kinase still bound, per cent of control in [1] worked out at 100%; in experiment [2] it was 100%; in [3], 100%; in experiment [4], 100%; in experiment [5], 0%; in experiment [6], 21%. The kinase still bound, per cent of control is 0.3% in experiment [7]; 2.9% in [8]; 100% in [9]; 20% in [10]; 100% in experiment [11]; 13% in [12]. Moreover, the kinase still bound, per cent of control turned out to be 24% in [13], 100% in experiment [14], 100% in experiment [15] and 100% in [16].
Regarding `CCN(CC)CCCCNc1ncc2cc(-c3cc(OC)cc(OC)c3)c(NC(=O)NC(C)(C)C)nc2n1`, the kinase still bound, per cent of control in experiment [1], in experiment [2], in experiment [3], in experiment [4], in experiment [9] and in experiment [10] was 100% throughout. The kinase still bound, per cent of control in [12], in experiment [13], in [14], in experiment [15] and in [16] was 100% each time.
As to `CNC(=O)c1ccc(Nc2cc(Nc3ccccc3S(=O)(=O)C(C)C)c3cc[nH]c3n2)nc1`, the kinase still bound, per cent of control in experiment [1] stood at 20%; in [2], 7.9%; in experiment [3] it was 11%; in [4] it was 0%; in experiment [5], 100%; in experiment [6], 100%. For the same molecule, the kinase still bound, per cent of control in [7] stood at 100%; in experiment [8], 100%; in experiment [9], 100%; in [10], 0.25%; in experiment [11], 2.6%; in experiment [12], 0.35%. Also, the kinase still bound, per cent of control turned out to be 4.5% in [13], 22% in [14], 18% in [15] and 4.7% in experiment [16].
Consider `COc1cc(C(=O)N2CCC(N3CCN(C)CC3)CC2)ccc1Nc1ncc2c(n1)N(C)c1ccccc1C(=O)N2C`, for which the kinase still bound, per cent of control stood at 80% in experiment [1]; 94% in experiment [2]; 72% in [5]; 86% in experiment [6]; 100% in experiment [7]; 84% in experiment [8]. The kinase still bound, per cent of control in experiment [9] was found to be 95%; in experiment [10], 100%; in experiment [11] it was 97%; in [12], 73%; in experiment [13], 72%; in experiment [14] it was 81%. The kinase still bound, per cent of control in experiment [15] stood at 100%; in experiment [17] it was 89%; in [18], 98%; in experiment [16], 100%; in experiment [19], 71%; in experiment [20], 38%. Besides, the kinase still bound, per cent of control in experiment [21] stood at 91%.
`Cc1n[nH]c2ccc(-c3cncc(OC[C@@H](N)Cc4c[nH]c5ccccc45)c3)cc12`: the kinase still bound, per cent of control stood at 100% in experiment [1]; 100% in [2]; 100% in experiment [3]; 100% in [4]; 100% in experiment [9]; 0.1% in experiment [10]. Besides, the kinase still bound, per cent of control in experiment [11] came to 3.8%; in [12], 0.1%; in [13], 1.1%; in experiment [14] it was 100%; in experiment [15], 100%; in experiment [16], 100%.
For the molecule `COc1ccc(N(C(=O)Oc2cc(C(=O)Nc3cccc(C(F)(F)F)c3)ccc2C)c2ccnc(Nc3ccc(N4CCN(C)CC4)cc3)n2)c(OC)c1`, the kinase still bound, per cent of control turned out to be 7.2% in experiment [1]; 1.4% in [2]; 1.8% in experiment [3]; 0.45% in [4]; 6.1% in experiment [5]; 18% in experiment [6]. Further, the kinase still bound, per cent of control in experiment [7] amounted to 1%; in experiment [8], 2.5%; in experiment [9] it was 100%; in experiment [10], 100%; in experiment [12], 29%; in experiment [13], 0.75%. For the same molecule, the results for the kinase still bound, per cent of control in experiment [14], in [15] and in [16] were 3.8%, 0.5% and 100%, respectively.
Consider `O=c1[nH]c2ccccc2n1C1CCN(Cc2ccc(-c3nc4cc5[nH]cnc5cc4nc3-c3ccccc3)cc2)CC1`, for which the kinase still bound, per cent of control in experiment [1] was determined as 93%; in experiment [2], 78%; in [5], 80%; in [6], 83%; in experiment [7], 66%; in experiment [8] it was 73%. Moreover, the kinase still bound, per cent of control in [9] worked out at 100%; in [10], 60%; in experiment [11] it was 56%; in experiment [12], 61%; in experiment [13] it was 79%; in [14], 100%. For the same molecule, the kinase still bound, per cent of control in [15] came out at 100%; in [17] it was 62%; in [18], 95%; in experiment [16], 69%; in [19], 100%; in experiment [20], 51%. For the same molecule, in [21], the kinase still bound, per cent of control worked out at 80%.
For the molecule `O=c1cc(N2CCOCC2)oc2c(-c3cccc4c3sc3ccccc34)cccc12`, the kinase still bound, per cent of control in experiment [1] worked out at 100%; in experiment [2] it was 100%; in experiment [5], 69%; in experiment [6] it was 100%; in [7] it was 100%; in experiment [8], 90%. Besides, the kinase still bound, per cent of control came out at 100% in [9]; 93% in [10]; 86% in experiment [11]; 100% in experiment [12]; 58% in experiment [13]; 100% in [14]. For the same molecule, the kinase still bound, per cent of control turned out to be 80% in experiment [15]; 19% in [17]; 8.2% in experiment [18]; 24% in experiment [16]; 11% in experiment [19]; 2.2% in experiment [20]. This molecule also registered a kinase still bound, per cent of control in experiment [21] of 16%.

(Values after the kinase profiling compilation of Christmann-Franck et al. (2016).)
